Measured values reported in publication PMC9436924, “A gene cluster in Ginkgo biloba encodes unique multifunctional cytochrome P450s that initiate ginkgolide biosynthesis” (Nature Communications, 2022).

Legend:
GbLPS = target: T1, GbLPS (Ginkgo biloba, UniProt Q947C4); assay: expression in tobacco leaves, GC-MS of products; type: cell-based; details: substrate made in situ with CfDXS and CfGGPPS
T1 construct: gene LPS; transiently expressed in Nicotiana benthamiana leaves, plastidial; (in yeast a truncated, codon-optimised MBP fusion was used)
T1 sequence (Q947C4 60-873): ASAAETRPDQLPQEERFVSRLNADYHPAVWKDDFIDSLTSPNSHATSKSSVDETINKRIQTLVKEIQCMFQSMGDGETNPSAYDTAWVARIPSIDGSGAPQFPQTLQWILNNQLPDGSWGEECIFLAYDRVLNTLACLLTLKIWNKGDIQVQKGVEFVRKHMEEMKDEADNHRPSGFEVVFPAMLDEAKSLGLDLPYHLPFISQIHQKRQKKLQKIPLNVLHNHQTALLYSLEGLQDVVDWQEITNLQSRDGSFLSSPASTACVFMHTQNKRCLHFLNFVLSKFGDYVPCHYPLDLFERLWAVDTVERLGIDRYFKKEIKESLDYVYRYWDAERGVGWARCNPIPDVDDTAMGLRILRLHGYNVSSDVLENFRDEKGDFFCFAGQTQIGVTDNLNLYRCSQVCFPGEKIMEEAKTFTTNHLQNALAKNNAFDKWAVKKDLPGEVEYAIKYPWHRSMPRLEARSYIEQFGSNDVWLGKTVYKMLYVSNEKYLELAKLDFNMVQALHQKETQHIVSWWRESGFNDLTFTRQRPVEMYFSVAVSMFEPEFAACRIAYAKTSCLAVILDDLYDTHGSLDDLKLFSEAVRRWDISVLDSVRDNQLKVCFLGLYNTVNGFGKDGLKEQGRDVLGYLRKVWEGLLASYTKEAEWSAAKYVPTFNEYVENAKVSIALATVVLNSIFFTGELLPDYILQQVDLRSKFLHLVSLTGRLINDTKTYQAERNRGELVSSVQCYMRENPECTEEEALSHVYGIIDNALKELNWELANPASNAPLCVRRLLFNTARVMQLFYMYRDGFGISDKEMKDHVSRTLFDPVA

GbCYP720B31 = target: T2, GbCYP720B31 (Ginkgo biloba, UniProt Z9PDJ7KIF4); assay: pathway co-expression in tobacco and yeast, LC-HRMS, NMR of product glucosides; type: cell-based; details: proposed substrate made in situ by upstream enzymes, free form not detected
T2 construct: G. biloba cDNA, gene on chromosome 4; expressed in Nicotiana benthamiana and Saccharomyces cerevisiae; GenBank numbers ON759313-ON759329 printed only as a collective set
T2 sequence (Z9PDJ7KIF4 1-483): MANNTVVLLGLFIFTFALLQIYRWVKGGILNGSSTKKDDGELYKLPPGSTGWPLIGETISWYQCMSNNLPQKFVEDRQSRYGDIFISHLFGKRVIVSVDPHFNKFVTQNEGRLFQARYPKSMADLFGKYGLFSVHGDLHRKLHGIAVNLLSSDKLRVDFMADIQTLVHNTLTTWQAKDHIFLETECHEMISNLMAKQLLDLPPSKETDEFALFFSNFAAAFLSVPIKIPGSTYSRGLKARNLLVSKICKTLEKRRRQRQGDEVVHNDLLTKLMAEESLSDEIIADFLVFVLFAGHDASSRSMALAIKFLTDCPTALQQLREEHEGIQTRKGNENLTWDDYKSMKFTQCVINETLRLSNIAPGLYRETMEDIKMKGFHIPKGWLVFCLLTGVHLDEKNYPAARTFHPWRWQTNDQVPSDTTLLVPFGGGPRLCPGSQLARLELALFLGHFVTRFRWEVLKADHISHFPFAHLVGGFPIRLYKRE

## CC(C)=CCC/C(C)=C/CC/C(C)=C/CC/C(C)=C/COP(=O)(O)OP(=O)(O)O [geranylgeranyl pyrophosphate]
GbLPS
  expression in tobacco leaves, GC-MS of products: levopimaradiene synthase (GbLPS) converts GGPP to diterpene hydrocarbon levopimaradiene

## CC(=CC(=O)O)C(CCc1cc(O)c(C(C)C)cc1O)C(C)(C)C (centres unmarked) [ginkgosinoic acid C]
GbCYP720B31
  pathway co-expression in tobacco and yeast, LC-HRMS, NMR of product glucosides: we propose that GbCYP720B31 hydroxylates ginkgosinoic acid C at position C20
